# B1: KDM4E (JMJD2E); KDM4E(1-377) (Homo sapiens) (protein)
# chain: MKSVHSSPQNTSHTIMTFYPTMEEFADFNTYVAYMESQGAHQAGLAKVIPPKEWKARQMYDDIEDILIATPLQQVTSGQGGVFTQYHKKKKAMRVGQYRRLANSKKYQTPPHQNFADLEQRYWKSHPGNPPIYGADISGSLFEESTKQWNLGHLGTILDLLEQECGVVIEGVNTPYLYFGMWKTTFAWHTEDMDLYSINYLHFGEPKTWYVVPPEHGQHLERLARELFPDISRGCEAFLRHKVALISPTVLKENGIPFNCMTQEAGEFMVTFPYGYHAGFNHGFNCAEAINFATPRWIDYGKMASQCSCGESTVTFSMDPFVRIVQPESYELWKHRQDLAIVEHTEPRVAESQELSNWRDDIVLRRAALGLRLLPNL
# notes: residues 1-377 (JmjN and JmjC domains); recombinant, E. coli BL21(DE3)-R3 with pRARE2
# Target: T1, KDM4E (JMJD2E); KDM4E(1-377) (Homo sapiens, UniProt B2RXH2)
# T1 construct: residues 1-377 (JmjN and JmjC domains); recombinant, E. coli BL21(DE3)-R3 with pRARE2
# T1 sequence (B2RXH2 1-377): B1 chain
# Experiment: RapidFire MS demethylation assay
# Format: biochemical
# Conditions: KDM activity: 5 µM H3(1-15)K9me2, 0.25 µM enzyme, 10 µM Fe(II), 100 µM ascorbate, 10 µM 2OG, 50 mM HEPES pH 7.5, 15 min; iron chelator, may act by chelating iron in solution; unreliable (printed s.e.m)
# Description: RapidFire MS demethylation assay on KDM4E (JMJD2E); KDM4E(1-377)
row,Molecule,pIC50 ± s.e.m. / inhibition of H3(1-15)K9me2 demethylation
1,O=C(O)CN(CCN(CC(=O)O)CC(=O)O)CC(=O)O [EDTA],5.82 ± 6.53 -log10(M)

# Substrate: O=C(O)CCC(=O)C(=O)O
# Experiment: steady-state kinetics (supplement)
# Format: biochemical, Homo sapiens
# Conditions: 50 mM HEPES pH 7.5, Fe(II), ascorbate, approximate value, peptide substrate not stated
row,Molecule,Km [µM]
1,B1,10

# Target: T1, KDM4E (JMJD2E); KDM4E(1-377)
# Experiment: RapidFire MS demethylation assay
# Format: biochemical
# Conditions: read-out: pIC50 ± s.e.m. / inhibition of H3(1-15)K9me2 demethylation (converted)
row,Molecule,IC50 [µM]
1,CC(C)c1c(-c2ccccc2)[nH]c2c(C#N)cnn2c1=O [CPI-455],4.47
2,O=C(O)CC[C@@H](O)C(=O)O [D-2HG],11.5
3,CCN(CCN(C)C)C(=O)CNCc1cc(C(=O)O)ccn1 [KDM5-C49],2.09
4,CCN(CCN(C)C)C(=O)CNCc1cc(C(N)=O)ccn1 [KDOAM25],182
5,O=C(O)CC[C@H](O)C(=O)O [L-2HG],13.5
6,CN(C)CCCNC(=O)c1ccc(-c2cc(O)c3ncccc3c2)cc1 [ML324],4.79
7,CC(=O)N(O)CCCCCNC(=O)CCC(=O)N(O)CCCCCNC(=O)CCC(=O)N(O)CCCCCN [deferoxamine],2.4
8,O=C(O)/C=C/C(=O)O [fumarate],1950
9,O=C(O)CCC(=O)O [succinate],148

# Reference: article PMC5915715, “Inhibitors of both the N-methyl lysyl- and arginyl-demethylase activities of the JmjC oxygenases” (Philosophical Transactions of the Royal Society B: …, 2018)
